Test results published in patent publication US11673878B2, “Benzazepine derivatives” (OTSUKA PHARMACEUTICAL CO., LTD., priority 2017, dated 2023).

Experiments:
[1] = molecular target: T1, rat vasopressin V1a receptor (Rattus norvegicus, UniProt P30560); experiment: Binding inhibition test for rat V1a receptor (3H-AVP, rat hepatic membrane); conditions: inhibition of 3H-AVP binding, rat hepatic membrane V1a receptor fractions, 4° C., 2 hours; read-out: Binding affinity rV1a (IC50)
T1 construct: V1a receptor fractions derived from rat hepatic membrane; from tissue; host or cells: rat liver (hepatic membrane)
Method: (§1) Various compounds were studied in binding affinities for vasopressin receptors with an indicator of binding inhibition of rat vasopressin V1a receptor and vasopressin V2 receptor of ^3H-arginine vasopressin (AVP) (NET800, available from PerkinElmer Inc., Life Sciences).
(1) Binding Inhibition Test for Rat V1a Receptor (rV1aR)
50 μg of V1a receptor fractions derived from rat hepatic membrane were diluted with a reaction solution (100 mM Tris-HCl (pH 8.0), 0.1% BSA, 5 mM MgCl2, 1 mM EDTA) and added to each well of a 96-well plate. A compound was added to each well in various concentrations (0.3 nM to 100 nM), and ^3H-AVP was added thereto in the range of 1 nM to 3 nM. Reactions were carried out at 4° C. for 2 hours on the plate. Via receptor fractions were collected with a 96-well glass filter (Unifilter GF/B) after the reactions and washed with a washing solution (10 mM Tris-HCl (pH 8.0), 5 mM MgCl2, 1 mM EDTA) three times, and then the radioactivity of ^3H-AVP was measured with a scintillation counter.
(§2) ^3H-AVP binding rate in the presence of a compound was calculated by the following equation. Binding rate (%)=(B−NSB)/(TB−NSB)×100 (B: Binding amount of ^3H-AVP in the presence of each compound, NSB: Binding amount of ^3H-AVP in the presence of 1 μM of unlabeled AVP, TB: Binding amount of ^3H-AVP in the absence of 1 μM of unlabeled AVP)

[2] = molecular target: T2, rat vasopressin V2 receptor (Rattus norvegicus, UniProt Q00788); experiment: Binding inhibition test for rat V2 receptor (3H-AVP, rV2R-CHO cells); conditions: inhibition of 3H-AVP binding, 4° C., 2 hours, read-out: Binding affinity rV2 (IC50)
T2 construct: expressed in transfected cells; host or cells: CHO cells (rV2R-CHO)
Method: as §1
(2) Binding Inhibition Test for Rat V2 Receptor (rV2R)
Rat V2 receptor-expressed CHO cells (rV2R—CHO) were incubated on 10% FBS-containing DMEM/F12 in a 24-well plate, and each cell was washed with D-PBS twice. A reaction solution (D-PBS containing 0.1% BSA and 0.05% sodium azide) comprising a compound in various concentrations (0.3 nM to 100 nM) was added to each well, and a certain amount of ^3H-AVP was added thereto (100-fold dilution). Reactions were carried out at 4° C. for 2 hours on the plate. Then, each well was washed with D-PBS twice and 0.1N NaOH was added to each well. The cells were collected, and the radioactivity of ^3H-AVP was measured with a scintillation counter.
as §2

[3] = Metabolic stability test in human liver microsomes; format: in vitro ADME; conditions: pH 7.4; human liver microsomes 1 mg/mL, test compound 1 μmol/L, NADPH and NADH, 37° C., n = 4; read-out: CLint (μL/min/mg) mean ± SD
Method: Reaction System and Incubation
According to methods of Obach and Jones, et al. (methods described in R. S. Obach, Drug Metab. Dispos. 1999 (27): 1350-1359 and H. Jones and J. B. Houston, Drug Metab. Dispos. 2004 (32): 973-982), the reaction system shown below was prepared and metabolic stabilities of test compounds (the present compounds and, tolvaptan) were evaluated using the reaction system shown below. Human liver microsomes purchased from Corning Inc. were used. Test compounds were dissolved in DMSO at the concentration of 10 mmol/L and then diluted with acetonitrile to prepare a 100 μmol/L solution for use in the test. The 100 μmol/L solutions were used in the experiment.
Human liver microsome 1 mg/mL
Co-factor (NADPH and NADH) 1 mmol/L each
Magnesium chloride 5 mmol/L
100 mmol/L Potassium phosphate buffer (pH 7.4)
The reaction mixture without co-factors was pre-incubated at 37° C. for 5 minutes, and then the reaction was initiated by the addition of the co-factors. The mixture was incubated for 0, 5, 10, 20, 30, and 60 minutes after the addition of the co-factors. An aliquot of the reaction mixture was removed and added to a methanol solution containing an internal standard (IS) and mixed to terminate the reaction at each predetermined time.
After the reaction was terminated, the mixture was separated by centrifugation and the supernatant was injected into a liquid chromatograph-tandem mass spectrometer (LC-MS/MS) to measure unchanged substances remained in the reaction system. The mass spectrometer was operated in a positive ion mode of the electrospray ionization (ESI) method. Unchanged substances and the IS were detected by multiple reaction monitoring (MRM) transitions using selected precursor and product ions set.
The remaining ratios of test compounds were calculated by the following equation. Remaining ratio=(Peak area ratio of a test compound to IS at t minutes after incubation)÷(Peak area ratio of a test compound to IS at 0 minute)
The slope of X-axis (the incubation time) and Y-axis (logarithm of the remaining ratio) was calculated by a non-linear least square method. Hepatic intrinsic clearance (CLint) was calculated by the following equation. CLint(μL/min/mg)=−(Slope(min^−1))÷1(mg/mL)×1000

[4] = Pharmacokinetics study in mice, single oral dose; format: in vivo; conditions: mouse; male ICR mice, single-dose oral administration of 30 mg/kg, plasma
Method: A pharmacokinetics (PK) study was performed using male ICR mice to compare the oral absorption properties of the present compounds with tolvaptan. A test compound was suspended in a 1% hydroxypropyl methylcellulose (HPMC) solution to be adjusted to the concentration of 4.5 mg/mL. The present compounds were used as the forms obtained in the above examples (including the amorphous form) for a test compound, or used after spray drying, if needed.
Male ICR mice (7-week old) were freely fed food and water and weighed on an electronic scale. Then, a test compound was orally administered at the dose of 30 mg/kg […]. After the oral administration, blood was collected from the abdominal vena cava under isoflurane anesthesia using a 1 mL heparinized syringe with a 26 G injection needle. Blood was separated by centrifugation at 4° C., 3000 rpm for 10 minutes to give plasma in a supernatant. The plasma concentration of a test compound was measured by LC-MS/MS.
The following PK parameters were calculated using the mean plasma concentrations of unchanged substances obtained from two animals at each time point.
Cmax: Maximum plasma concentration (μg/mL)
tmax: Time-to-maximum plasma concentration (h)
AUCinf: Area under the plasma concentration-time curve from administration to infinite time (μg h/mL)

T1 sequence (P30560 whole entry): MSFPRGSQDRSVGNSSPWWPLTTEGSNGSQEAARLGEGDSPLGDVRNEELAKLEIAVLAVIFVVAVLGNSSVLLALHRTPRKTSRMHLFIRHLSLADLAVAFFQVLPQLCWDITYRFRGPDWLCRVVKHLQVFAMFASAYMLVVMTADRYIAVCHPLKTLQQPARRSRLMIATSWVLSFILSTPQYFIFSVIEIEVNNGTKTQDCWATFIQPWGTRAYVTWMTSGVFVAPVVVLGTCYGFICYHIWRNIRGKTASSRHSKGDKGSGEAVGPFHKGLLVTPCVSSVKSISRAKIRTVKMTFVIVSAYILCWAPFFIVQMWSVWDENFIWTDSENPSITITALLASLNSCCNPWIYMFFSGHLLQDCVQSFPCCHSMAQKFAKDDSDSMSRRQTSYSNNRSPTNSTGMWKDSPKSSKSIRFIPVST
T2 sequence (Q00788 whole entry): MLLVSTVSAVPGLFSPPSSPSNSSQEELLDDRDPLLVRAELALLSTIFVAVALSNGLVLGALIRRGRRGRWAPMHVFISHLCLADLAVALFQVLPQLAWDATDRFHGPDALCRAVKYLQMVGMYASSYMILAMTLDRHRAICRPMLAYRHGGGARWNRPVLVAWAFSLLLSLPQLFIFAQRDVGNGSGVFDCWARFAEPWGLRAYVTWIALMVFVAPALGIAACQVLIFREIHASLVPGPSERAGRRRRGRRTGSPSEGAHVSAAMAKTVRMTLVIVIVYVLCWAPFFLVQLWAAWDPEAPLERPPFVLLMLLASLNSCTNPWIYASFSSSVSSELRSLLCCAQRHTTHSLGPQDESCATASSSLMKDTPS

Row | Structure (SMILES) | IC50 [1] [nM] | IC50 [2] [nM] | microsomal CLint at 1 μmol/L [3] [µL/min/mg] | AUC(0-inf) [4] [ng·h/mL] | Cmax [4] [ng/mL] | Tmax [4] [h]
1 | O=C(Nc1ccc(C(=O)N2CCC(F)(F)[C@](O)(CO)c3cc(Cl)ccc32)cc1F)c1cc(F)ccc1-c1ccccc1F [Example 168, N-{4-[(5R)-7-chloro-4,4-difluoro-5-hydroxy-5-(hydroxymethyl)-2,3,4,5-tetrahydro-1H-1-benzazepine-1-carbonyl]-2-fluorophenyl}-2′,4-difluoro-[1,1′-biphenyl]-2-carboxamide] | 2.2 | 4.7 | 7.48 ± 1.5 | 40900 | 7110 | 1
2 | Cc1ccccc1C(=O)Nc1ccc(C(=O)N2CCCC(O)c3cc(Cl)ccc32)c(C)c1 (stereo not shown) [Tolvaptan, reference compound] | – | – | 105 ± 11 | 1780 | 682 | 1
3 | O=C(Nc1ccc(C(=O)N2CCC(F)(F)[C@](O)(CO)c3cc(Cl)ccc32)cc1)c1cc(F)ccc1-c1ccccc1 [Example 153, N-{4-[(5R)-7-chloro-4,4-difluoro-5-hydroxy-5-(hydroxymethyl)-2,3,4,5-tetrahydro-1H-1-benzazepine-1-carbonyl]phenyl}-4-fluoro-[1,1′-biphenyl]-2-carboxamide] | 3.6 | 4.5 | 1.91 ± 2.22 | 34000 | 5480 | 1
4 | O=C(Nc1ccc(C(=O)N2CCC(F)(F)[C@](O)(CO)c3cc(Cl)ccc32)cc1F)c1cc(F)ccc1C(F)F [Example 157, N-{4-[(5R)-7-chloro-4,4-difluoro-5-hydroxy-5-(hydroxymethyl)-2,3,4,5-tetrahydro-1H-1-benzazepine-1-carbonyl]-2-fluorophenyl}-2-(difluoromethyl)-5-fluorobenzamide] | 12 | 3.2 | < 4 | 80500 | 6210 | 1
5 | O=C(Nc1ccc(C(=O)N2CCC(F)(F)[C@](O)(CO)c3cc(Cl)ccc32)cc1F)c1cc(F)ccc1C(F)(F)F [Example 132] | 5.2 | 2.3 | < 4 | 56500 | 3590 | 4
6 | O=C(Nc1ccc(C(=O)N2CCC(F)(F)[C@](O)(CO)c3cc(Cl)ccc32)cn1)c1cc(F)ccc1-c1ccccc1 [Example 96, N-{5-[(5R)-7-chloro-4,4-difluoro-5-hydroxy-5-(hydroxymethyl)-2,3,4,5-tetrahydro-1H-1-benzazepine-1-carbonyl]pyridin-2-yl}-4-fluoro-[1,1′-biphenyl]-2-carboxamide] | 2 | 5 | 0.953 ± 1.91 | 43000 | 5550 | 4
7 | O=C1c2cc(F)ccc2CCN1c1ccc(C(=O)N2CCC(F)(F)[C@](O)(CO)c3cc(Cl)ccc32)cc1 [Example 187, 2-{4-[(5R)-7-chloro-4,4-difluoro-5-hydroxy-5-(hydroxymethyl)-2,3,4,5-tetrahydro-1H-1-benzazepine-1-carbonyl]phenyl}-7-fluoro-1,2,3,4-tetrahydroisoquinolin-1-one] | 2.6 | 0.4 | < 4 | 5440 | 2040 | 1
8 | O=C(Nc1ccc(C(=O)N2CCC(F)(F)[C@](O)(CO)c3cc(Cl)ccc32)cn1)c1cc(F)ccc1-c1ccccc1F [Example 165, N-{5-[(5R)-7-chloro-4,4-difluoro-5-hydroxy-5-(hydroxymethyl)-2,3,4,5-tetrahydro-1H-1-benzazepine-1-carbonyl]pyridin-2-yl}-2′,4-difluoro-[1,1′-biphenyl]-2-carboxamide] | 1.7 | 3.4 | 3.61 ± 2.43 | 41500 | 7720 | 1
9 | O=C(Nc1ccc(C(=O)N2CCC(F)(F)[C@](O)(CO)c3cc(Cl)ccc32)cn1)c1cc(F)c(Cl)cc1Cl [Example 52, 2,4-dichloro-N-{5-[(5R)-7-chloro-4,4-difluoro-5-hydroxy-5-(hydroxymethyl)-2,3,4,5-tetrahydro-1H-1-benzazepine-1-carbonyl]pyridin-2-yl}-5-fluorobenzamide] | 8.8 | 3 | < 4 | 62700 | 5570 | 1
10 | O=C(Nc1ccc(C(=O)N2CCC(F)(F)[C@](O)(CO)c3cc(Cl)ccc32)cn1)c1cccnc1-c1ccccc1 [Example 97, N-{5-[(5R)-7-chloro-4,4-difluoro-5-hydroxy-5-(hydroxymethyl)-2,3,4,5-tetrahydro-1H-1-benzazepine-1-carbonyl]pyridin-2-yl}-2-phenylpyridine-3-carboxamide] | 5.4 | 1.4 | 6.98 ± 4.77 | 8310 | 3130 | 1
11 | O=C(Nc1ccc(C(=O)N2CCC(F)(F)[C@](O)(CO)c3cc(Cl)ccc32)cn1)c1ccccc1-c1ccccc1 [Example 63, N-{5-[(5R)-7-chloro-4,4-difluoro-5-hydroxy-5-(hydroxymethyl)-2,3,4,5-tetrahydro-1H-1-benzazepine-1-carbonyl]pyridin-2-yl}-[1,1′-biphenyl]-2-carboxamide] | 1.4 | 1.1 | 3.1 ± 3.58 | 14400 | 4440 | 1
12 | O=C(Nc1ccc(C(=O)N2CCC(F)(F)[C@](O)(CO)c3cc(Cl)ccc32)cn1)c1ccc(Cl)cc1Cl [Example 51, 2,4-dichloro-N-{5-[(5R)-7-chloro-4,4-difluoro-5-hydroxy-5-(hydroxymethyl)-2,3,4,5-tetrahydro-1H-1-benzazepine-1-carbonyl]pyridin-2-yl}benzamide] | 16.1 | 1.7 | < 4 | 53800 | 5070 | 1
